Test results published in PubChem BioAssay AID1963985 (Molecular Pharmacology Branch, DTP, NCI, 2024).

Test system: 252836-082-R-J2-PDC tumor spheroids, viability
Assay: Anticancer human tumor 252836-082-R-J2-PDC patient-derived head and neck squamous cell carcinoma cell line growth inhibition [PI3K]
Conditions: spheroids with HUVEC and MSC; for IC50: curve of first compound; for viability, T/C: stronger effect = lower value
Source text: Combinatorial screen of targeted agents with the PI3K inhibitors inavolisib, alpelisib, duvelisib, and copanlisib in multi-cell type tumor spheroids
A high-throughput screen of multi-cell type tumor spheroids was designed to identify active combinations of targeted small molecules and PI3K pathway inhibitors. Complex spheroids include a stromal component modeled by human endothelial cells (HUVEC) and fibroblasts modeled by human mesenchymal stem cells (MSCs). The concentration ranges selected for each drug and investigational agent were based upon clinically achievable concentrations if the clinical Cmax of the agent was known.
Compounds. The drugs and investigational agents: inavolisib (NSC800729), alpelisib (NSC765974), duvelisib (NSC772469), copanlisib (NSC816437), ipatasertib (NSC767898), afuresertib (NSC778305), talazoparib (NSC767125), sapanisertib (NSC764658), selumetinib (NSC741078), tovorafenib (DAY101, NSC766906), vemurafenib (NSC761431), ravoxertinib (NSC781343), sotorasib (NSC818433), MRTX1133 (NSC 836407), abemaciclib (NSC 768073), palbociclib (NSC758247), venetoclax (NSC 766270), SY5609 (NSC837396), enzalutamide (NSC755605), and darolutamide (NSC825331), were obtained from the National Cancer Institute (NCI) Developmental Therapeutics Program Chemical Repository. The FDA-approved anticancer drug set is available from the NCI Developmental Therapeutics Program. […] The stock solutions were prepared in dimethyl sulfoxide (DMSO, Sigma-Aldrich, St. Louis, MO, cat. D2650) at 800-fold the tested concentration and stored at -70 degrees C prior to their use. All drugs and investigational agents were tested over a range starting from a high concentration at or near the clinical Cmax and decreasing in half-log increments. If the clinical Cmax for an agent had not been determined, the highest concentration tested was 10 microM.
Cell Culture. All cells were maintained in an incubator at 37 degrees C and 5% CO2 with 95% humidity. The PDC lines were cultured according to standard operating procedures established by the NCI PDMR (https://pdmr.cancer.gov/sops/default.htm). All PDCs were thawed and cultured in Matrigel-coated flasks prepared with a working solution of 1X Ham's F-12 nutrient mix, without supplementation (Invitrogen, Waltham, MA, cat. 11765054), 100 U/mL penicillin-streptomycin (Invitrogen, cat. 15140122), and 2.5% Matrigel (Corning Inc., Corning, NY, cat. 354248) for the first three passages. The 354836-022-R-J1-PDC, 475296-252-R-J1-PDC, and 997726-040-R-J2-PDC lines were cultured in 6A media, which includes advanced DMEM/F-12 (Thermo Fisher Scientific, cat. 12634028), 10 mM HEPES (Thermo Fisher Scientific, cat. 15630080), 1X GlutaMAX supplement (Thermo Fisher Scientific, cat. 35050061), 0.1 mg/mL primocin (InvivoGen, San Diego, CA, cat. ant-pm-2), 10% defined fetal bovine serum, heat inactivated (HyClone Laboratories Inc., Logan, UT, cat. SH30070.03HI), 50% L-WRN conditioned media (ATCC, cat. CRL-3276), 1.25 mM N-Acetyl-L-cysteine (Sigma-Aldrich, cat. A9165), 10 mM nicotinamide (Sigma-Aldrich, cat. N0636), 1X B-27 supplement (Thermo Fisher Scientific, cat. 17504044), 1X N-2 supplement (Thermo Fisher Scientific, cat. 17502048), and 10 microM Y-27632 dihydrochloride (Tocris Bioscience, Bristol, United Kingdom, cat. 1254). The 624824-186-R-J2-PDC line was cultured in 6C/Colon 1B media, which includes all 6A media components plus 50 ng/mL human EGF recombinant protein (Thermo Fisher Scientific, cat. PHG0311). […]
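Note: spheroids exposed to agents for seven days before readout.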
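Throughout, for viability, T/C: percent of vehicle DMSO control viability so 100% = untreated growth.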

Compound: CC(=O)c1c(C)c2cnc(Nc3ccc(N4CCNCC4)cn3)nc2n(C2CCCC2)c1=O + CC(Nc1ccc2c(c1)OCCn1cc(N3C(=O)OCC3C(F)F)nc1-2)C(N)=O
- IC50 (second compound 0.00316 µM): > 100 nM
- IC50 (second compound 0.01 µM): > 100 nM
- IC50 (second compound 0.0316 µM): > 100 nM
- IC50 (second compound 0.1 µM): > 100 nM
- IC50 (second compound 0.316 µM): > 100 nM
- IC50 (second compound 1 µM): < 0.316 nM
- viability, T/C (second compound 0.00316 µM, first compound 0.000316 µM): 102%
- viability, T/C (second compound 0.00316 µM, first compound 0.001 µM): 91.6%
- viability, T/C (second compound 0.00316 µM, first compound 0.00316 µM): 94.5%
- viability, T/C (second compound 0.00316 µM, first compound 0.01 µM): 89.8%
- viability, T/C (second compound 0.00316 µM, first compound 0.0316 µM): 98.2%
- viability, T/C (second compound 0.00316 µM, first compound 0.1 µM): 105%
- viability, T/C (second compound 0.01 µM, first compound 0.000316 µM): 97.1%
- viability, T/C (second compound 0.01 µM, first compound 0.001 µM): 84.9%
- viability, T/C (second compound 0.01 µM, first compound 0.00316 µM): 93.7%
- viability, T/C (second compound 0.01 µM, first compound 0.01 µM): 89.2%
- viability, T/C (second compound 0.01 µM, first compound 0.0316 µM): 83.9%
- viability, T/C (second compound 0.01 µM, first compound 0.1 µM): 87.9%
- viability, T/C (second compound 0.0316 µM, first compound 0.000316 µM): 90.8%
- viability, T/C (second compound 0.0316 µM, first compound 0.001 µM): 76.1%
- viability, T/C (second compound 0.0316 µM, first compound 0.00316 µM): 74.1%
- viability, T/C (second compound 0.0316 µM, first compound 0.01 µM): 70.7%
- viability, T/C (second compound 0.0316 µM, first compound 0.0316 µM): 81.4%
- viability, T/C (second compound 0.0316 µM, first compound 0.1 µM): 82.4%
- viability, T/C (second compound 0.1 µM, first compound 0.000316 µM): 68.8%
- viability, T/C (second compound 0.1 µM, first compound 0.001 µM): 68.9%
- viability, T/C (second compound 0.1 µM, first compound 0.00316 µM): 69.8%
- viability, T/C (second compound 0.1 µM, first compound 0.01 µM): 70.8%
- viability, T/C (second compound 0.1 µM, first compound 0.0316 µM): 66.5%
- viability, T/C (second compound 0.1 µM, first compound 0.1 µM): 67.5%
- viability, T/C (second compound 0.316 µM, first compound 0.000316 µM): 54.9%
- viability, T/C (second compound 0.316 µM, first compound 0.001 µM): 53.6%
- viability, T/C (second compound 0.316 µM, first compound 0.00316 µM): 65.1%
- viability, T/C (second compound 0.316 µM, first compound 0.01 µM): 50.7%
- viability, T/C (second compound 0.316 µM, first compound 0.0316 µM): 62.2%
- viability, T/C (second compound 0.316 µM, first compound 0.1 µM): 55.7%
- viability, T/C (second compound 1 µM, first compound 0.000316 µM): 47.5%
- viability, T/C (second compound 1 µM, first compound 0.001 µM): 45.6%
- viability, T/C (second compound 1 µM, first compound 0.00316 µM): 41.9%
- viability, T/C (second compound 1 µM, first compound 0.01 µM): 42.4%
- viability, T/C (second compound 1 µM, first compound 0.0316 µM): 44.9%
- viability, T/C (second compound 1 µM, first compound 0.1 µM): 45.1%
